Experimental data taken from ChEMBL document CHEMBL1123908, “Endoperoxides as potential antimalarial agents” (J Med Chem, 1987).

What was measured:
Format in all cases: functional, organism-based
[1] = test system: Mus musculus; assay: Blood schizonticidal activity against Plasmodium berghei in mice (Mus musculus) at the dose of 40 mg/kg; Inactive; design: dose 40 mg/kg
[2] = test system: Mus musculus; assay: Blood schizonticidal activity against Plasmodium berghei in mice (Mus musculus) at the dose of 640 mg/kg; Inactive; design: dose 640 mg/kg
[3] = test system: Mus musculus; assay: Blood schizonticidal activity against Plasmodium berghei in mice (Mus musculus) at the dose of 160 mg/kg; Inactive; design: dose 160 mg/kg

CC12CCC(OC(=O)c3ccccc3)C(C)(C)C13CCC(C2)OO3 (configuration not stated)
Not Active: Blood schizonticidal activity [1] | Activity (active/inactive) [2] | Activity call [3]

CCCCOC(=O)OC1CCC2(C)CC3CCC2(OO3)C1(C)C (configuration not stated)
Not Active: Blood schizonticidal activity [1] | Activity (active/inactive) [2] | Activity call [3]

CC(=O)OC1CCC2(C)CC3C=C[C@]2(OO3)C1(C)C (some centres not stated)
Not Active: Blood schizonticidal activity [1] | Activity (active/inactive) [2] | Activity call [3]

CC12CCC(O)C(C)(C)C13CCC(C2)OO3 (configuration not stated)
Not Active: Blood schizonticidal activity [1] | Activity (active/inactive) [2] | Activity call [3]

CC12CCC(OC(=O)c3ccccc3)C(C)(C)[C@@]13C=CC(C2)OO3 (some centres not stated)
Not Active: Blood schizonticidal activity [1] | Activity (active/inactive) [2] | Activity call [3]

CC(C)CCCC(C)[C@H]1CC[C@H]2C3CC=C4C[C@@H](OC(=O)OC5CCC6(C)CC7C=CC6(OO7)C5(C)C)CCC4(C)[C@H]3CCC12C (some centres not stated)
Not Active: Blood schizonticidal activity [1] | Activity (active/inactive) [2] | Activity call [3]

CC12CCC(O)C(C)(C)[C@@]13C=CC(C2)OO3 (some centres not stated)
Not Active: Blood schizonticidal activity [1] | Activity (active/inactive) [2] | Activity call [3]

CC(=O)OC(C)CCC12OO[C@@H](C=C1C)CC2(C)C (some centres not stated)
Not Active: Blood schizonticidal activity [1] | Activity (active/inactive) [2] | Activity call [3]

CC(=O)OC1CCC2(C)CC3CCC2(OO3)C1(C)C (configuration not stated)
Not Active: Blood schizonticidal activity [1] | Activity (active/inactive) [2] | Activity call [3]
